This is an account of results in patent US8003648B2, “Heterocyclic GPR40 modulators” (Amgen Inc., priority 2006, dated 2011).

The structures appear in SMILES notation.

The target in the assay is T1, human GPR40 (Homo sapiens, UniProt O14842).
T1 construct: host or cells: CHO cells
T1 sequence (O14842 whole entry): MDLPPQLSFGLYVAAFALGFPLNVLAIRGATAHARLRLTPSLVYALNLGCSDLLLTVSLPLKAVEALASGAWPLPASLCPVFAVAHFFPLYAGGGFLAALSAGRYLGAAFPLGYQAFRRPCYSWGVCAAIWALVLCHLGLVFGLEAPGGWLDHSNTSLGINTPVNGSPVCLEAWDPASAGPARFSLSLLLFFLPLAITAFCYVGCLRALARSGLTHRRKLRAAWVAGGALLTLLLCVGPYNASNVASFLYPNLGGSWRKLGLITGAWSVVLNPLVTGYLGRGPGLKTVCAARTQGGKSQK
Briefly: Cell-based aequorin assay using human GPR40. The following applies: activation of human GPR40; CHO cells stably transfected with GPR40 and Aequorin; 0.01% HSA; aequorin luminescence. As for the experimental part: Cell-based aequorin assays were employed to characterize the modulatory activity of compounds on the GPR40 signaling pathway. In an exemplary assay, CHO cells were stably transfected with both GPR40 and Aequorin (Euroscreen). Cells were detached from the tissue culture dish with 2 mL of trypsin (0.25% (w/v)). Trypsinization was halted with 28 mL of Hanks Buffered Salt Solution containing 20 mM Hepes (H/HBSS) and 0.01% fatty acid-free human serum albumin (HSA). Coelantrazine is added to 1 ug/mL, and the cells were incubated for 2 hours at room temperature. Compounds were dissolved in DMSO for preparation of 10 mM stock solutions. Compounds were diluted in H/HBSS containing 0.01% HSA. Serial dilutions of the test compounds were prepared to determine dose response.
Aequorin luminescence measurements were made using an EG&G Berthold 96-well luminometer, and the response was measured over a 20 second interval after cells and compounds were mixed. The maximum relative light units was plotted to determine dose response. The EC50 (effective concentration to reach 50% maximal response) was determined from the dose response plot.
Table 1 presents representative data (EC50 values) obtained for exemplary compounds of the invention for the activation of human GPR40. […]
As usually defined, the EC50 is the concentration needed to bring the measured effect to its halfway point. A higher EC50 goes with a need for much substance. Take `Cc1c(Cl)cccc1-c1cccc(COc2ccc(C(CC(=O)O)c3ccon3)cc2)c1` (centres unmarked) [Example 1, 3-(4-(3-(3-Chloro-2-methylphenyl)benzyloxy)phenyl)-3-(isoxazol-3-yl)propanoic acid]: the concentration giving a half-maximal response (EC50) lay within 0.01 to 0.1 µM.

`O=C(O)C[C@@H](c1ccc(OCc2cccc(-c3ccc(C(F)(F)F)cc3)c2)cc1)c1ccon1` [Example 2, (S)-3-(4-(3-(4-(Trifluoromethyl)phenyl)benzyloxy)phenyl)-3-(isoxazol-3-yl)propanoic acid] registered a concentration for a half-maximal effect (EC50) of 0.01 to 0.1 µM.

Turning to `O=C(O)C[C@H](c1ccc(OCc2cccc(-c3ccc(C(F)(F)F)cc3)c2)cc1)c1ccon1` [Example 3, (R)-3-(4-(3-(4-(Trifluoromethyl)phenyl)benzyloxy)phenyl)-3-(isoxazol-3-yl)propanoic acid], the EC50 was in the range of 1 to 10 µM.

The molecule `CCOc1cc(Cl)ccc1-c1ccc(COc2ccc([C@H](CC(=O)O)c3ccon3)cc2)cc1` [Example 4, (S)-3-(4-(4-(4-Chloro-2-ethoxyphenyl)benzyloxy)phenyl)-3-(isoxazol-3-yl)propanoic acid] had a concentration for a half-maximal effect (EC50) of 0.01 to 0.1 µM.

`CCOc1cc(Cl)ccc1-c1ccc(COc2ccc([C@@H](CC(=O)O)c3ccon3)cc2)cc1` [Example 5, (R)-3-(4-(4-(4-Chloro-2-ethoxyphenyl)benzyloxy)phenyl)-3-(isoxazol-3-yl)propanoic acid] gave a concentration for a half-maximal effect (EC50) of 1 to 10 µM.

Turning to `Cc1nc(-c2ccc(C(F)(F)F)cc2)sc1COc1ccc([C@@H](CC(=O)O)c2ccon2)cc1` [Example 6, (R)-3-(Isoxazol-3-yl)-3-(4-((4-methyl-2-(4-(trifluoromethyl)phenyl)thiazol-5-yl)methoxy)phenyl)propanoic acid], the half-maximal effective concentration (EC50) fell in the range of 0.1 to 1 µM.

`Cc1nc(-c2ccc(C(F)(F)F)cc2)sc1COc1ccc([C@H](CC(=O)O)c2ccon2)cc1` [Example 7, (S)-3-(Isoxazol-3-yl)-3-(4-((4-methyl-2-(4-(trifluoromethyl)phenyl)thiazol-5-yl)methoxy)phenyl)propanoic acid] yielded an EC50 of 0.01 to 0.1 µM.

`Cc1nc(-c2ccc(C(F)(F)F)cc2)sc1COc1ccc(C(CC(=O)O)C2=NOCC2)cc1` (centres unmarked) [Example 8]: the EC50 lay in the range of 0.1 to 1 µM.

In the case of `Cc1nc(-c2ccc(C(F)(F)F)cc2)sc1COc1ccc([C@H](CC(=O)O)C2=NOCC2)cc1` [Example 9, (S)-3-(Dihydroisoxazol-3-yl)-3-(4-((4-methyl-2-(4-(trifluoromethyl)phenyl)thiazol-5-yl)methoxy)phenyl)propanoic acid], the EC50 lay within 0.01 to 0.1 µM.

For the molecule `Cc1ccc(-c2nc(C)c(COc3ccc([C@H](CC(=O)O)C4=NOCC4)cc3)s2)cc1` [Example 10, (S)-3-(Dihydroisoxazol-3-yl)-3-(4-((4-methyl-2-(4-methylphenyl)thiazol-5-yl)methoxy)phenyl)propanoic acid], the EC50 lay within 0.1 to 1 µM.

In turn, `COc1ccc(-c2nc(COc3ccc([C@H](CC(=O)O)c4ccon4)cc3)no2)cc1` [Example 11, (S)-3-(Isoxazol-3-yl)-3-(4-((5-(4-methoxyphenyl)-1,2,4-oxadiazol-3-yl)methoxy)phenyl)propanoic acid] showed an EC50 of 1 to 10 µM.

In the case of `O=C(O)C[C@@H](c1ccc(OCc2nc(-c3ccc(OCc4ccc(Cl)cc4)cc3)no2)cc1)c1ccon1` [Example 12, (S)-3-(4-((3-(4-(4-Chlorobenzyloxy)phenyl)-1,2,4-oxadiazol-5-yl)methoxy)phenyl)-3-(isoxazol-3-yl)propanoic acid], the EC50 was in the range of 0.1 to 1 µM.

`Cc1ccc(-c2ccc(COc3ccc([C@H](CC(=O)O)c4ccon4)cc3)s2)cc1` [Example 13, (S)-3-(Isoxazol-3-yl)-3-(4-((5-p-tolylthiophen-2-yl)methoxy)phenyl)propanoic acid]: the EC50 is 0.01 to 0.1 µM.

For `CCCCc1ccc(-c2nc(C)c(COc3ccc([C@H](CC(=O)O)C4=NOCC4)cc3)s2)cc1` [Example 14, (S)-3-(4-((2-(4-Butylphenyl)-4-methylthiazol-5-yl)methoxy)phenyl)-3-(4,5-dihydroisoxazol-3-yl)propanoic acid], the 50% effective concentration (EC50) lay within 0.01 to 0.1 µM.

Consider `Cc1ccc(-c2cc(COc3ccc([C@H](CC(=O)O)c4ccon4)cc3)c(C)o2)cc1` [Example 15, (S)-3-(Isoxazol-3-yl)-3-(4-((2-methyl-5-p-tolylfuran-3-yl)methoxy)phenyl)propanoic acid], for which the EC50 lay within 0.01 to 0.1 µM.

Take `Cn1nc(-c2ccc(C(F)(F)F)cc2)cc1COc1ccc([C@H](CC(=O)O)c2ccon2)cc1` [Example 16, (S)-3-(Isoxazol-3-yl)-3-(4-((1-methyl-3-(4-(trifluoromethyl)phenyl)-1H-pyrazol-5-yl)methoxy)phenyl)propanoic acid]: the concentration for a half-maximal effect (EC50) fell in the range of 0.1 to 1 µM.

On to `Cc1ccc(COc2ccc([C@H](CC(=O)O)c3ccon3)cc2)cc1-c1ccc(CC(C)C)cc1` [Example 17, (S)-3-(4-(3-(4-Isobutyl)-phenyl-4-methylbenzyloxy)phenyl)-3-(isoxazol-3-yl)propanoic acid], for which the half-maximal effective concentration (EC50) was 0.1 to 1 µM.

The molecule `CCCCc1ccc(-c2cc(COc3ccc([C@H](CC(=O)O)c4ccon4)cc3)ccc2C)cc1` [Example 18, (S)-3-(4-(3-(4-Butyl)-phenyl-4-methylbenzyloxy)phenyl)-3-(isoxazol-3-yl)propanoic acid] displayed a concentration giving a half-maximal response (EC50) of 0.1 to 1 µM.

In the case of `CS(=O)(=O)c1cc(COc2ccc([C@H](CC(=O)O)c3ccon3)cc2)ccc1OC(F)(F)F` [Example 19, (S)-3-(4-(3-(Methylsulfonyl)-4-(trifluoromethoxy)benzyloxy)-phenyl)-3-(isoxazol-3-yl)propanoic acid], the EC50 fell in the range of 1 to 10 µM.

The molecule `O=C(O)C[C@@H](c1ccc(OCc2ccc(OC(F)(F)F)c(C3=CCCC3)c2)cc1)c1ccon1` [Example 20, (S)-3-(4-(3-Cyclopentenyl-4-(trifluoromethoxy)benzyloxy)-phenyl)-3-(isoxazol-3-yl)propanoic acid] displayed an EC50 of 0.01 to 0.1 µM.

As for `O=C(O)C[C@@H](c1ccc(OCc2ccc(Cl)c(C(F)(F)F)c2)cc1)c1ccon1` [Example 21, (S)-3-(4-(4-Chloro-3-(trifluoromethyl)benzyloxy)phenyl)-3-(isoxazol-3-yl)propanoic acid], the concentration for a half-maximal effect (EC50) lay in the range of 0.01 to 0.1 µM.

The molecule `O=C(O)C[C@@H](c1ccc(OCc2ccc(OC(F)(F)F)c(OC(F)(F)F)c2)cc1)c1ccon1` [Example 22, (S)-3-(4-(3,4-Bis(trifluoromethoxy)benzyloxy)phenyl)-3-(isoxazol-3-yl)propanoic acid] came in with an EC50 of 0.01 to 0.1 µM.

In turn, `O=C(O)C[C@@H](c1ccc(OCc2ccc(OC(F)(F)F)c(C3CCCC3)c2)cc1)c1ccon1` [Example 23, (S)-3-(4-(3-Cyclopentyl-4-(trifluoromethoxy)benzyloxy)-phenyl)-3-(isoxazol-3-yl)propanoic acid] came in with an EC50 of 0.01 to 0.1 µM.

For `C=C(C)c1cc(COc2ccc([C@H](CC(=O)O)c3ccon3)cc2)ccc1OC(F)(F)F` [Example 24, (S)-3-(4-(3-(Prop-1-en-2-yl)-4-(trifluoromethoxy)benzyloxy)-phenyl)-3-(isoxazol-3-yl)propanoic acid], the concentration for a half-maximal effect (EC50) lay in the range of 0.01 to 0.1 µM.

The molecule `O=C(O)C[C@@H](c1ccc(OCc2ccc(OC(F)(F)F)c(Br)c2)cc1)c1ccon1` [Example 25, (S)-3-(4-(3-bromo-4-(trifluoromethoxy)benzyloxy)phenyl)-3-(isoxazol-3-yl)propanoic acid] yielded an EC50 of 0.01 to 0.1 µM.

`CC(C)c1cc(COc2ccc([C@H](CC(=O)O)c3ccon3)cc2)ccc1C(C)(C)C` [Example 26, (S)-3-(4-(4-tert-Butyl-3-isopropylbenzyloxy)phenyl)-3-(isoxazol-3-yl)propanoic acid] registered a concentration giving a half-maximal response (EC50) of 0.1 to 1 µM.

The molecule `O=C(O)C[C@@H](c1ccc(OCc2cccc(NC(=O)c3ccc(C(F)(F)F)cc3)c2)cc1)c1ccon1` [Example 27, (S)-3-(4-(3-(4-(Trifluoromethyl)benzamido)benzyloxy)phenyl)-3-(isoxazol-3-yl)propanoic acid] yielded an EC50 of 0.1 to 1 µM.

In turn, `O=C(O)C[C@@H](c1ccc(OCc2ccc(C3=CCCC3)c(OC(F)(F)F)c2)cc1)c1ccon1` [Example 28, (S)-3-(4-(4-Cyclopentenyl-3-(trifluoromethoxy)benzyloxy)-phenyl)-3-(isoxazol-3-yl)propanoic acid] yielded a concentration for a half-maximal effect (EC50) of 0.01 to 0.1 µM.

Turning to `CC(C)(C)C(=O)Nc1cccc(COc2ccc([C@H](CC(=O)O)c3ccon3)cc2)c1` [Example 30, (S)-3-(4-(3-Pivalamidobenzyloxy)phenyl)-3-(isoxazol-3-yl)propanoic acid], the half-maximal effective concentration (EC50) lay in the range of 1 to 10 µM.

The molecule `O=C(O)C[C@@H](c1ccc(OCc2cccc(Sc3ccc(C(F)(F)F)cc3)c2)cc1)c1ccon1` [Example 31, (S)-3-(4-(3-(4-(Trifluoromethyl)phenylthio)benzyloxy)phenyl)-3-(isoxazol-3-yl)propanoic acid] had a half-maximal effective concentration (EC50) of 0.01 to 0.1 µM.

Regarding `O=C(O)C[C@@H](c1ccc(OCc2cccc(NS(=O)(=O)c3ccc(C(F)(F)F)cc3)c2)cc1)c1ccon1` [Example 32, (S)-3-(4-(3-(4-Trifluoromethylphenylsulfonamido)benzyloxy)-phenyl)-3-(isoxazol-3-yl)propanoic acid], the 50% effective concentration (EC50) lay in the range of 0.1 to 1 µM.

Molecule `O=C(O)C[C@@H](c1ccc(OCc2cccc(S(=O)(=O)c3ccc(C(F)(F)F)cc3)c2)cc1)c1ccon1` [Example 33, (S)-3-(4-(3-(4-(Trifluoromethyl)phenylsulfonyl)benzyloxy)-phenyl)-3-(isoxazol-3-yl)propanoic acid] registered an EC50 of 0.1 to 1 µM.
